Experimental data as given in patent US20240376163A1, “PEPTIDE FOR INHIBITING CALCINEURIN AND USE THEREOF” (Seoul National University R&DB Foundation, priority 2023, published 2024).

Tested on: Jurkat T cells
Test: mRNA sequencing of activated Jurkat T cells
Type: cell-based, human
Details: P + I

Sequence: PEITVTPPTP [CABIN1-L-1-2]
- MSMO1 FPKM (Jurkat T cells): 52.664 FPKM
- MT2A FPKM (Jurkat T cells): 409.501 FPKM
- MXD3 FPKM (Jurkat T cells): 20.08 FPKM
- MYB FPKM (Jurkat T cells): 48.107 FPKM
- MZB1 FPKM (Jurkat T cells): 23.597 FPKM
- N4BP3 FPKM (Jurkat T cells): 2.499 FPKM
- NAA16 FPKM (Jurkat T cells): 3.877 FPKM
- NCKAP1 FPKM (Jurkat T cells): 10.157 FPKM
- NCOA3 FPKM (Jurkat T cells): 11.775 FPKM
- NDRG1 FPKM (Jurkat T cells): 128.386 FPKM
- NDRG2 FPKM (Jurkat T cells): 2.149 FPKM
- NEDD9 FPKM (Jurkat T cells): 4.972 FPKM
- NFATC1 FPKM (Jurkat T cells): 3.916 FPKM
- NFKB1 FPKM (Jurkat T cells): 44.661 FPKM
- NFKB2 FPKM (Jurkat T cells): 71.869 FPKM
- NLRC3 FPKM (Jurkat T cells): 5.507 FPKM
- NME4 FPKM (Jurkat T cells): 17.501 FPKM
- NOTCH2 FPKM (Jurkat T cells): 12.916 FPKM
- NOTCH3 FPKM (Jurkat T cells): 0.859 FPKM
- NPDC1 FPKM (Jurkat T cells): 5.64 FPKM
- NR4A3 FPKM (Jurkat T cells): 1.977 FPKM
- NREP FPKM (Jurkat T cells): 6.879 FPKM
- NRP1 FPKM (Jurkat T cells): 14.016 FPKM
- NSG1 FPKM (Jurkat T cells): 3.929 FPKM
- NSMF FPKM (Jurkat T cells): 3.265 FPKM
- NT5E FPKM (Jurkat T cells): 12.217 FPKM
- NTRK1 FPKM (Jurkat T cells): 1.657 FPKM
- ODC1 FPKM (Jurkat T cells): 374.309 FPKM
- OPTN FPKM (Jurkat T cells): 14.333 FPKM
- OSBPL5 FPKM (Jurkat T cells): 3.123 FPKM
- PAM FPKM (Jurkat T cells): 1.934 FPKM
- PCNA-AS1 FPKM (Jurkat T cells): 71.806 FPKM
- PDCD1 FPKM (Jurkat T cells): 1.974 FPKM
- PDGFA FPKM (Jurkat T cells): 8.169 FPKM
- PDGFC FPKM (Jurkat T cells): 2.913 FPKM
- PDIA6 FPKM (Jurkat T cells): 128.39 FPKM
- PDLIM1 FPKM (Jurkat T cells): 5.135 FPKM
- PELI2 FPKM (Jurkat T cells): 8.166 FPKM
- PEX5L FPKM (Jurkat T cells): 1.299 FPKM
- PHACTR2 FPKM (Jurkat T cells): 2.791 FPKM
- PHLDB2 FPKM (Jurkat T cells): 3.404 FPKM
- PI16 FPKM (Jurkat T cells): 9.625 FPKM
- PKIG FPKM (Jurkat T cells): 11.17 FPKM
- PKM FPKM (Jurkat T cells): 1838.428 FPKM
- PLAC8 FPKM (Jurkat T cells): 1.896 FPKM
- PLEC FPKM (Jurkat T cells): 25.453 FPKM
- PLS3 FPKM (Jurkat T cells): 0.37 FPKM
- POTEE FPKM (Jurkat T cells): 1.196 FPKM
- POU2AF1 FPKM (Jurkat T cells): 2.971 FPKM
- POU2F2 FPKM (Jurkat T cells): 4.109 FPKM
- PPIF FPKM (Jurkat T cells): 106.533 FPKM
- PPP1R15A FPKM (Jurkat T cells): 76.265 FPKM
- PPP1R16B FPKM (Jurkat T cells): 26.306 FPKM
- PRDM8 FPKM (Jurkat T cells): 40.783 FPKM
- PRNP FPKM (Jurkat T cells): 41.922 FPKM
- PSMB10 FPKM (Jurkat T cells): 125.268 FPKM
- PTPN6 FPKM (Jurkat T cells): 20.806 FPKM
- PTPN7 FPKM (Jurkat T cells): 78.61 FPKM
- PXYLP1 FPKM (Jurkat T cells): 4.92 FPKM
- QPRT FPKM (Jurkat T cells): 10.818 FPKM
- RAB37 FPKM (Jurkat T cells): 1.369 FPKM
- RASGRP1 FPKM (Jurkat T cells): 3.909 FPKM
- RASGRP2 FPKM (Jurkat T cells): 2.335 FPKM
- RB1 FPKM (Jurkat T cells): 49.538 FPKM
- RCBTB2 FPKM (Jurkat T cells): 7.77 FPKM
- RCOR2 FPKM (Jurkat T cells): 1.298 FPKM
- RGS2 FPKM (Jurkat T cells): 3.39 FPKM
- RHOU FPKM (Jurkat T cells): 1.378 FPKM
- RNF19A FPKM (Jurkat T cells): 12.101 FPKM
- RNF212 FPKM (Jurkat T cells): 1.401 FPKM
- RORA FPKM (Jurkat T cells): 1.998 FPKM
- RRAS2 FPKM (Jurkat T cells): 20.023 FPKM
- RTN4R FPKM (Jurkat T cells): 1.548 FPKM
- RUNX1 FPKM (Jurkat T cells): 28.867 FPKM
- RUNX3 FPKM (Jurkat T cells): 28.166 FPKM
- SASH3 FPKM (Jurkat T cells): 46.514 FPKM
- SBK1 FPKM (Jurkat T cells): 5.945 FPKM
- SCG2 FPKM (Jurkat T cells): 86.711 FPKM
- SCHIP1 FPKM (Jurkat T cells): 1.333 FPKM
- SEPT3 FPKM (Jurkat T cells): 0.994 FPKM
- SEPT6 FPKM (Jurkat T cells): 44.841 FPKM
- SEPT9 FPKM (Jurkat T cells): 39.741 FPKM
- SERINC5 FPKM (Jurkat T cells): 3.312 FPKM
- SERPINB8 FPKM (Jurkat T cells): 23.508 FPKM
- SERPINE2 FPKM (Jurkat T cells): 3.911 FPKM
- SERTAD1 FPKM (Jurkat T cells): 14.426 FPKM
- SGK1 FPKM (Jurkat T cells): 105.258 FPKM
- SH2D1A FPKM (Jurkat T cells): 16.781 FPKM
- SH2D2A FPKM (Jurkat T cells): 22.586 FPKM
- SH3TC1 FPKM (Jurkat T cells): 1.895 FPKM
- SIVA1 FPKM (Jurkat T cells): 51.964 FPKM
- SLAMF1 FPKM (Jurkat T cells): 0.275 FPKM
- SLAMF7 FPKM (Jurkat T cells): 3.544 FPKM
- SLAMF8 FPKM (Jurkat T cells): 5.828 FPKM
- SLC22A1 FPKM (Jurkat T cells): 42.379 FPKM
- SLC27A2 FPKM (Jurkat T cells): 41.908 FPKM
- SLC29A4 FPKM (Jurkat T cells): 1.658 FPKM
- SLC35E4 FPKM (Jurkat T cells): 1.517 FPKM
- SLC35G2 FPKM (Jurkat T cells): 11.385 FPKM
- SMAD1 FPKM (Jurkat T cells): 3.995 FPKM
- SMOX FPKM (Jurkat T cells): 18.934 FPKM
- SMPD1 FPKM (Jurkat T cells): 18.206 FPKM
- SORBS1 FPKM (Jurkat T cells): 0.511 FPKM
- SOX4 FPKM (Jurkat T cells): 55.775 FPKM
- SPINT1 FPKM (Jurkat T cells): 1.712 FPKM
- SPRY1 FPKM (Jurkat T cells): 4.901 FPKM
- SPRY4 FPKM (Jurkat T cells): 7.991 FPKM
- SPSB1 FPKM (Jurkat T cells): 9.593 FPKM
- SPTBN2 FPKM (Jurkat T cells): 2.053 FPKM
- SRGN FPKM (Jurkat T cells): 9.743 FPKM
- SSBP2 FPKM (Jurkat T cells): 5.549 FPKM
- ST3GAL6 FPKM (Jurkat T cells): 5.239 FPKM
- STAT2 FPKM (Jurkat T cells): 36.117 FPKM
- STAT3 FPKM (Jurkat T cells): 74.439 FPKM
- STAU2 FPKM (Jurkat T cells): 5.719 FPKM
- STMN3 FPKM (Jurkat T cells): 7.407 FPKM
- STX1A FPKM (Jurkat T cells): 13.882 FPKM
- SYK FPKM (Jurkat T cells): 6.222 FPKM
- TAGAP FPKM (Jurkat T cells): 8.731 FPKM
- TAL1 FPKM (Jurkat T cells): 18.466 FPKM
- TAP2 FPKM (Jurkat T cells): 6.702 FPKM
- TAPBPL FPKM (Jurkat T cells): 20.693 FPKM
- TBC1D4 FPKM (Jurkat T cells): 13.191 FPKM
- TBC1D5 FPKM (Jurkat T cells): 3.021 FPKM
- TBKBP1 FPKM (Jurkat T cells): 22.205 FPKM
- TCF3 FPKM (Jurkat T cells): 36.607 FPKM
- TCF7 FPKM (Jurkat T cells): 11.184 FPKM
- TCF12 FPKM (Jurkat T cells): 29.903 FPKM
- TDRD9 FPKM (Jurkat T cells): 1.888 FPKM
- TGFBR2 FPKM (Jurkat T cells): 36.254 FPKM
- THEM6 FPKM (Jurkat T cells): 2.542 FPKM
- THEMIS FPKM (Jurkat T cells): 35.627 FPKM
- TIAF1 FPKM (Jurkat T cells): 9.375 FPKM
- TIAM1 FPKM (Jurkat T cells): 9.551 FPKM
- TIAM2 FPKM (Jurkat T cells): 0.301 FPKM
- TLE1 FPKM (Jurkat T cells): 1.647 FPKM
- TMCC3 FPKM (Jurkat T cells): 7.278 FPKM
- TNFAIP3 FPKM (Jurkat T cells): 35.424 FPKM
- TNFRSF10B FPKM (Jurkat T cells): 36.431 FPKM
- TNFSF10 FPKM (Jurkat T cells): 49.452 FPKM
- TNFSF14 FPKM (Jurkat T cells): 4.255 FPKM
- TPM4 FPKM (Jurkat T cells): 178.336 FPKM
- TPST2 FPKM (Jurkat T cells): 29.147 FPKM
- TRAF3IP3 FPKM (Jurkat T cells): 11.237 FPKM
- TRIB1 FPKM (Jurkat T cells): 4.108 FPKM
- TRIM21 FPKM (Jurkat T cells): 42.08 FPKM
- TTLL1 FPKM (Jurkat T cells): 3.295 FPKM
- UBE2L6 FPKM (Jurkat T cells): 167.347 FPKM
- UHRF1 FPKM (Jurkat T cells): 6.903 FPKM
- VAMP1 FPKM (Jurkat T cells): 14.752 FPKM
- VAT1 FPKM (Jurkat T cells): 40.336 FPKM
- VAV1 FPKM (Jurkat T cells): 22.182 FPKM
- WARS FPKM (Jurkat T cells): 112.259 FPKM
- WDR76 FPKM (Jurkat T cells): 8.215 FPKM
- XCL1 FPKM (Jurkat T cells): 1.144 FPKM
- XCL2 FPKM (Jurkat T cells): 2.074 FPKM
- XIRP1 FPKM (Jurkat T cells): 13.281 FPKM
- XRCC6BP1 FPKM (Jurkat T cells): 9.204 FPKM
- YPEL1 FPKM (Jurkat T cells): 4.38 FPKM
- ZFP36L1 FPKM (Jurkat T cells): 136.279 FPKM
- ZFP36L2 FPKM (Jurkat T cells): 9.774 FPKM
- ZNF280D FPKM (Jurkat T cells): 2.132 FPKM
- ZNF367 FPKM (Jurkat T cells): 2.274 FPKM
- ZNF480 FPKM (Jurkat T cells): 6.823 FPKM
- ZNF521 FPKM (Jurkat T cells): 1.965 FPKM
- ZNF652 FPKM (Jurkat T cells): 2.469 FPKM
- ZNF704 FPKM (Jurkat T cells): 0.183 FPKM
- ZNF827 FPKM (Jurkat T cells): 1.372 FPKM
- ZNFX1 FPKM (Jurkat T cells): 19.096 FPKM
- ZP4 FPKM (Jurkat T cells): 5.182 FPKM
- ZYX FPKM (Jurkat T cells): 85.489 FPKM
- ADORA2A FPKM: 1.475 FPKM
- AGK FPKM: 14.306 FPKM
- ARHGEF3 FPKM: 8.674 FPKM
- ASAP1 FPKM: 9.052 FPKM
- ATG14 FPKM: 11.252 FPKM
- ATP6V1B2 FPKM: 60.661 FPKM
- BCL2L1 FPKM: 41.852 FPKM
- C3 FPKM: 1.329 FPKM
- C10orf54 FPKM: 0.487 FPKM
- CABP1 FPKM: 1.689 FPKM
- CCDC64 FPKM: 11.039 FPKM
- CCL1 FPKM: 0.415 FPKM
- CCL3 FPKM: 0.502 FPKM
- CCL3L1 FPKM: 0.079 FPKM
- CCL3L3 FPKM: 0.079 FPKM
- CCL4 FPKM: 4.062 FPKM
- CCL4L1 FPKM: 0.328 FPKM
- CCL4L2 FPKM: 0.328 FPKM
- CCL20 FPKM: 1.279 FPKM
- CCND2 FPKM: 0.99 FPKM
- CD27-AS1 FPKM: 4.613 FPKM
- CD27 FPKM: 3.4 FPKM
- CD55 FPKM: 12.082 FPKM
- CD70 FPKM: 7.606 FPKM
- CD97 FPKM: 21.496 FPKM
- CD200 FPKM: 0.094 FPKM
- COL27A1 FPKM: 5.729 FPKM
- CREB5 FPKM: 1.966 FPKM
